pIC50: −log10 of the molar value.
Experiments:
HIV-1 (strain IIIB) = assay: MT4 Cell Antiviral Assay; type: cell-based; details: Human immunodeficiency virus 1, 120 h; HIV-1 strain IIIB in MT4 cells, 5 days, Cell Titer-Glo; 50% decrease in HIV-induced cytopathic effect
Summary of the method: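 MT4 cells infected 1 h with HIV-1 IIIB (300×TCID50/million cells), then cultured 5 days with serially diluted compound; mock-infected cells run in parallel for cytotoxicity. Luminescence read-out. IC50 = concentration restoring 50% of infected-cell growth relative to uninfected controls, excluding concentrations leaving ≤79% of uninfected cells.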

HIV = details: cited from earlier work

For `CC(C)C1=C2[C@H]3CC[C@@H]4[C@@]5(C)CC[C@H](OC(=O)CC(C)(C)C(=O)O)C(C)(C)[C@@H]5CC[C@@]4(C)[C@]3(C)CC[C@@]2(/C=C/C(=O)NC2(c3ccccc3Cl)CC2)CC1=O` [Example 20, 4-(((3aS,5aR,5bR,7aR,9S,11aR,11bR,13aS)-3a-((E)-3-((1-(2-Chlorophenyl)cyclopropyl)amino)-3-oxoprop-1-en-1-yl)-1-isopropyl-5a,5b,8,8,11a-pentamethyl-2-oxo-3,3a,4,5,5a,5b,6,7,7a,8,9,10,11,11a,11b,12,13,13a-octadecahydro-2H-cyclopenta[a]chrysen-9-yl)oxy)-2,2-dimethyl-4-oxobutanoic acid], the pIC50 (HIV-1 (strain IIIB)) was 6.60 to 8.00.
`CC(C)C1=C2[C@H]3CC[C@@H]4[C@@]5(C)CC[C@H](OC(=O)CC(C)(C)C(=O)O)C(C)(C)[C@@H]5CC[C@@]4(C)[C@]3(C)CC[C@@]2(/C=C/C(=O)N[C@H](C)c2ccccn2)CC1=O` [Example 14, 4-(((3aS,5aR,5bR,7aR,9S,11aR,11bR,13aS)-1-Isopropyl-5a,5b,8,8,11a-pentamethyl-2-oxo-3a-((E)-3-oxo-3-(((R)-1-(pyridin-2-yl)ethyl)amino)prop-1-en-1-yl)-3,3a,4,5,5a,5b,6,7,7a,8,9,10,11,11a,11b,12,13,13a-octadecahydro-2H-cyclopenta[a]chrysen-9-yl)oxy)-2,2-dimethyl-4-oxobutanoic acid] gave a pIC50 (HIV-1 (strain IIIB)) of 6.60 to 8.00.
Work on `CC(C)C1=C2[C@H]3CC[C@@H]4[C@@]5(C)CC[C@H](OC(=O)CC(C)(C)C(=O)O)C(C)(C)[C@@H]5CC[C@@]4(C)[C@]3(C)CC[C@@]2(/C=C/C(=O)Nc2ccc(F)cc2)CC1=O` [Example 17, 4-(((3aS,5aR,5bR,7aR,9S,11aR,11bR,13aS)-3a-((E)-3-((4-Fluorophenyl)amino)-3-oxoprop-1-en-1-yl)-1-isopropyl-5a,5b,8,8,11a-pentamethyl-2-oxo-3,3a,4,5,5a,5b,6,7,7a,8,9,10,11,11a,11b,12,13,13a-octadecahydro-2H-cyclopenta[a]chrysen-9-yl)oxy)-2,2-dimethyl-4-oxobutanoic acid] yielded a pIC50 (HIV-1 (strain IIIB)) of 6.60 to 8.00.
`CC(C)C1=C2[C@H]3CC[C@@H]4[C@@]5(C)CC[C@H](OC(=O)CC(C)(C)C(=O)O)C(C)(C)[C@@H]5CC[C@@]4(C)[C@]3(C)CC[C@@]2(/C=C/C(=O)Nc2ccc(Cl)cc2)CC1=O` [Example 2, 4-(((3aS,5aR,5bR,7aR,9S,11aR,11bR,13aS)-3a-((E)-3-((4-Chlorophenyl)amino)-3-oxoprop-1-en-1-yl)-1-isopropyl-5a,5b,8,8,11a-pentamethyl-2-oxo-3,3a,4,5,5a,5b,6,7,7a,8,9,10,11,11a,11b,12,13,13a-octadecahydro-2H-cyclopenta[a]chrysen-9-yl)oxy)-2,2-dimethyl-4-oxobutanoic acid] gave a pIC50 (HIV-1 (strain IIIB)) of 6.60 to 8.00.
In the case of `C=C(C)[C@@H]1CC[C@]2(C(=O)O)CC[C@]3(C)[C@H](CC[C@@H]4[C@@]5(C)CC[C@H](OC(=O)CC(C)(C)C(=O)O)C(C)(C)[C@@H]5CC[C@]43C)[C@@H]12` [Bevirimat], the “mean reduction of HIV viral load” value (HIV; patients with trough levels >=20 μg/mL and without key baseline Gag polymorphisms at Q369, V370 or T371) is listed as 1.3 log10/mL and the “viral load reduction versus patients without Gag polymorphisms” value (HIV; users with Gag polymorphisms at Q369, V370 or T371) is listed as “significantly lower load reductions”.
Work on `CC(C)C1=C2[C@H]3CC[C@@H]4[C@@]5(C)CC[C@H](OC(=O)CC(C)(C)C(=O)O)C(C)(C)[C@@H]5CC[C@@]4(C)[C@]3(C)CC[C@@]2(/C=C/C(=O)N[C@@H](C)c2ccc(Cl)cc2)CC1=O` [Example 6, 4-(((3aS,5aR,5bR,7aR,9S,11aR,11bR,13aS)-3a-((E)-3-(((S)-1-(4-Chlorophenyl)ethyl)amino)-3-oxoprop-1-en-1-yl)-1-isopropyl-5a,5b,8,8,11a-pentamethyl-2-oxo-3,3a,4,5,5a,5b,6,7,7a,8,9,10,11,11a,11b,12,13,13a-octadecahydro-2H-cyclopenta[a]chrysen-9-yl)oxy)-2,2-dimethyl-4-oxobutanoic acid] yielded a pIC50 (HIV-1 (strain IIIB)) of 6.60 to 8.00.
With `CC(C)C1=C2[C@H]3CC[C@@H]4[C@@]5(C)CC[C@H](OC(=O)CC(C)(C)C(=O)O)C(C)(C)[C@@H]5CC[C@@]4(C)[C@]3(C)CC[C@@]2(/C=C/C(=O)Nc2ccc(Cl)cn2)CC1=O` [Example 18, 4-(((3aS,5aR,5bR,7aR,9S,11aR,11bR,13aS)-3a-((E)-3-((5-Chloropyridin-2-yl)amino)-3-oxoprop-1-en-1-yl)-1-isopropyl-5a,5b,8,8,11a-pentamethyl-2-oxo-3,3a,4,5,5a,5b,6,7,7a,8,9,10,11,11a,11b,12,13,13a-octadecahydro-2H-cyclopenta[a]chrysen-9-yl)oxy)-2,2-dimethyl-4-oxobutanoic acid] the pIC50 (HIV-1 (strain IIIB)) was 6.60 to 8.00.
